Where two headings read alike, the source gives them in different places. Some results are limits rather than exact numbers.

The source of these data is patent publication US10864273B2, “Thiobase compounds for photodynamic therapy” (CASE WESTERN RESERVE UNIVERSITY, priority 2015, dated 2020).

One data set relates to 3D human skin models. To be noted: in conjunction with a low dose of UVA radiation; lower epidermis of 3D human skin models; cited from earlier work.
For data set [1] the following is noted: pH 7.4 phosphate buffer solution; previously reported values; cited from earlier work.
The subject of the next data set is bladder cancer. To be noted: in conjunction with a low dose of UVA radiation; animal models; cited from earlier work.
The test system of another data set is cancerous cell lines. To be noted: in conjunction with a low dose of UVA radiation; in vitro; cited from earlier work.
The nature of data set [2]: Estimated maximum UVA treatment depth in tissue from absorption cutoff and penetration depth curve. Conditions: cutoff ε=1000 M^−1 cm^−1. An excerpt: Longer wavelengths of light are able to penetrate deeper into tissues due to less scattering and reduced absorption by natural biomolecules (FIG. 5). Therefore, the redshifted absorption of 2,4dtThy as compared to 4tThd opens up the possibility for it to be effectively used as a photosensitizer in deeper tissue UVA-activated therapies. The maximum treatment depth for these two compounds was estimated by defining an arbitrary absorption cutoff of ε=1000 M^−1 cm^−1 (i.e., 371 nm for 4tThd and 395 nm for 2,4dtThy; FIG. 5). […] In order to account for this, the area under the penetration depth curve (FIG. 5) was integrated up to the respective absorption cutoff for each compound. Using this integration method the total increase in treatment depth of 2,4dtThy relative to 4tThd was determined to be about 67%. This increase likely serves as an upper bound limit for the actual relative increase because the molar absorptivity coefficients of the compounds will no doubt play a role. However, because the absorption of radiation at a given wavelength is not only dependent on a photosensitizer's molar absorptivity coefficients but also on its concentration in the tissue, our best estimation is that 2,4dtThy could facilitate UVA-activated treatment in tissues 23 to 67% deeper than those that can be effectively treated by 4tThd.

The nature of data set [3]: Femtosecond broadband transient absorption spectroscopy of the thiothymine series (intersystem crossing, triplet yield). Format: physicochemical. Conditions: for τISC intersystem crossing lifetime: probe 600 nm. On the procedure:
Femtosecond transient absorption spectroscopy was performed using a Ti— Sapphire regenerative amplifier laser system (Libra-HE, Coherent, Inc.; 800 nm, 100 fs, 4.0 W at 1 kHz). 2.6 W of the 800 nm beam were used to pump an optical parametric amplifier (TOPAS, Quantronix/Light Conversion) to generate the excitation beam at selected wavelengths of 320, 335, and 360 nm. Contributions to the excitation beam from other wavelengths and polarizations were removed by a reflective wavelength filter (λ-filter) and a Glan-Taylor polarizer, respectively, and the polarization was randomized using a depolarizing plate in order to prevent rotational effects from contributing to the dynamics, as described in details elsewhere.
A Helios spectrometer (Ultrafast Systems, LLC.) was used for pump-probe measurements. A fraction of the fundamental (800 nm) beam from the Libra-HE was used to generate white light continuum (WLC). The Helios spectrometer uses an optical delay line with a maximum delay of ˜3 ns for the 800 nm beam, which was used to pump a continuously-moving 2 mm CaF2 plate for generation of the WLC broadband probe pulse covering the spectral range from ˜320-700 nm. The probe light was then passed through a 730 nm low-pass dichroic optical filter, so as to block residual fundamental beam and to avoid saturating the complementary metal-oxide-semiconductor (CMOS) detectors. The probe pulse was then split into two beams, both of which were recollimated and focused into the optical fibers leading to their respective CMOS detectors. In this setup, one of the beams serves as reference, while the other is used to probe the sample of interest. A synchronized chopper wheel was used to block every other pump pulse, such that the difference in absorption between two consecutive measurements gives the transient spectrum. The excitation beam was attenuated to 1 μJ/pulse at the sample using a neutral density optical filter before entering the spectrometer. The excitation pulse was focused to a beam diameter three times larger than that of the probe beam at the sample position. Detection time windows of 20 and 200 ps were used in this work.
All solutions were prepared using pH 7.4 aqueous phosphate buffer, with a total phosphate concentration of 16 mM. The solution was continuously stirred in a 2 mm optical path length quartz cell (Starna Cells, Inc.) using a Teflon-coated magnetic stirring bar so as to bring fresh sample to the pump-probe region for each measurement. The solution in the cuvette was replaced with a fresh sample, from the same stock solution, every 5-7 scans, so that all scans had no more than 5% decrease in absorbance at the lowest-energy absorption-band maximum as determined by steady-state absorption spectroscopy.
All broadband transient absorption data were corrected for group velocity dispersion (GVD) of the WLC using a home-made LabView program (National Instruments, Inc.) as previously described. 3 Analysis of transient absorption kinetics was performed in Igor Pro 6.32A (WaveMetrics, Inc.) using the target analysis method, as described previously, and a sequential kinetic model convoluted with an instrument response function of ˜200 fs (FWHM). The instrument response was determined from the coherence signal of neat methanol generated at the sample cell. Global fitting analysis was performed using 15 to 30 representative kinetic traces covering the full range of probe wavelengths. At least three independent datasets (i.e., recorded on three different days) were used in the analysis and all uncertainties are reported as twice the standard deviation of the average lifetime. Decay associated spectra shown in FIG. 7A were extracted from the global fitting analysis of the transient decay traces taken every third probe wavelength across the entire WLC range.

The conditions of data set [4]: cited from earlier work.
Data set [5] in a line: Singlet oxygen quantum yield by phosphorescence at 1270 nm, thiothymine series. Format: physicochemical. Conditions: for ΦΔ singlet oxygen quantum yield: O2-saturated acetonitrile solution, 355 nm excitation, phenalenone standard. How it is done:
Singlet oxygen phosphorescence measurements were performed using a modified Fluorolog-3 spectrometer (HORIBA, Jobin Yvon) in conjunction with a NIR sensitive photomultiplier tube (H10330A-45, Hamamatsu). A 450 W Xe lamp was used for steady state excitation to record singlet oxygen phosphorescence spectra and a Spectra Physics GCR-150-30 Nd:YAG laser (355 nm, 7 ns pulse width) was used for pulsed excitation to collect singlet oxygen phosphorescence decay traces at 1270 nm, which were stored on a digital oscilloscope (TDS 360, Tektronics).
O2-saturated acetonitrile solutions of the thiobases and standard (phenalenone) with matching absorbance at 355 nm (O.D.=0.3 at 1 cm optical path length) were prepared. The measurements were performed in a 1×1 cm quartz cell. Singlet oxygen quantum yields were determined from the phosphorescence intensity at 1270 nm at the end of the laser pulse using phenalenone as standard (ΦΔ=0.98).
While ultrafast internal conversion to the ground state and the low triplet yield in thymidine provide the nucleobase with its high degree of photostability, the near-unity triplet yields in the thiothymine series account for their potent photo-sensitization properties. We have obtained evidence for significant photoreactivity of these triplet states by performing time-resolved energy transfer experiments to molecular oxygen, thus generating singlet oxygen, as monitored by its characteristic phosphorescence at 1270 nm (FIG. 3 and FIG. 4). The singlet oxygen quantum yields for 4tThd and 2,4dtThy were determined using phenalenone as a standard (ΦΔ=0.98) and are summarized in Table 1. It should be remarked that quantification of the singlet oxygen yield is one of the primary methods used to determine the efficacy of a prospective photosensitizer for phototherapeutic applications. To our knowledge, this is the first work to report the singlet oxygen yield of 2,4dtThy. […] Consistent with the spectroscopic analysis herein, the singlet oxygen yield of 2tThy is smaller than those of 4tThd and 2,4dtThy.

For data set [6] the following is noted: O2-saturated acetonitrile; literature / standard value; cited from earlier work.
For data set [7] the following is noted: O2-saturated acetonitrile solution; previously measured / standard value; cited from earlier work.
Data set [8] can be described thus: Steady-state absorption spectroscopy, thymine series. Format: physicochemical. Conditions: phosphate buffer solution at pH 7.4. The source says: 2-thiothymine (2tThy, 98% purity) was obtained from AK Scientific, 4-thiothymidine (4tThd, 99% purity) was obtained from Carbosynth Ltd., and 2-thiothymidine (2tThd) and 2,4-dithiothymine (2,4dtThy) were obtained from Sigma Aldrich. All compounds were used as received. The purity of these compounds was ensured by using fluorescence spectroscopy and by comparison with the published absorption maxima and their corresponding extinction coefficients. Phosphate buffer solutions were freshly prepared using 0.12 g of sodium dihydrogen phosphate and 0.089 g of disodium hydrogen phosphate dissolved in 100 mL of ultrapure water and adjusted to pH 7.4 using a 2 M NaOH solution. Steady-state absorption spectra were measured using a Cary 100 Bio spectrometer. All absorption spectra were corrected for the solvent background by subtraction of the absorption of the solvent.
Specifically, sulfur substitution of the C2 carbonyl in thymine results in about a 10 nm redshift in the absorption maximum, whereas substitution at the C4 position results in a redshift of about 70 nm. Remarkably, double-substitution results in about a 100 nm redshift of the lowest-energy absorption band of thymidine (ΔE=9905 cm^−1), without an appreciable change in the magnitude of the extinction coefficient at the corresponding wavelengths (1×10^4 M^−1 cm^−1). Replacement of an oxygen atom by a sulfur atom in a carbonyl bond is expected to shift the absorption spectrum to the red because the thiocarbonyl is weaker than the carbonyl bond and the excited electronic states in thiocarbonyl compounds are typically found at lower energies. However, the difference in bond strengths between a carbonyl and thiocarbonyl bond cannot solely explain the large spectral shift observed between 2tThy/2tThd and 4tThd. Furthermore, the redshift in the absorption spectrum of 2,4dtThy cannot simply be expressed as a linear combination of the absorption spectra of the 2tThy/2tThd and 4tThd derivatives. […] Glycosylation of 2tThy, generating 2tThd, results in a 2 nm redshift in the absorption maximum and about 2-fold increase in the molar absorptivity coefficients (FIG. 1B). The same effect has been previously documented in the natural bases and in other thiobases. Therefore, glycosylation of 2,4dtThy to form 2,4-dithiothymidine is expected to redshift the absorption spectrum slightly and to increase the molar absorptivity coefficients.

[9] abbreviates: pH 7.4 phosphate buffer solution.

For the compound `Cc1cn([C@H]2C[C@H](O)[C@@H](CO)O2)c(=O)[nH]c1=S` [4tThd, 4-thiothymidine], the “induction of cytotoxic lesions” value with 3D human skin models is “induce cytotoxic lesions in the lower epidermis of 3D human skin models”. Further, in [1], the “ΦT triplet quantum yield” value is 0.85 ± 0.15. The “treatment of bladder cancer” value in the data set on bladder cancer is reported as “treat bladder cancer in animal models”. In addition, the “killing of cancerous cell lines” value in the data set with cancerous cell lines is reported as “effectively kill cancerous cell lines in vitro”. Also, the “wavelength at arbitrary absorption cutoff” value in [2] is on record as 371 nm. Besides, the “intersystem crossing rate increase relative to Thd” value in [3] is 3.2 fold. The “τISC intersystem crossing lifetime” value in data set [3] (setting [9]) was 240 ± 20 fs. The triplet-triplet extinction coefficient in data set [4] (at 520 nm, previously reported, own determination in agreement) was 2500 ± 700 M⁻¹ cm⁻¹. In addition, in [4] (reference for relative actinometry), the “reported triplet yield of the reference compound” value was 1.0±0.1. In addition, in data set [5], the “1O2 yield lower than that of the corresponding thiouracil derivative” value worked out at 14% and the “ΦΔ singlet oxygen quantum yield” value turned out to be 0.42 ± 0.02.

As to `O=C1C=Cc2cccc3cccc1c23` [phenalenone], the “ΦΔ singlet oxygen quantum yield” value in data set [6] and in data set [7] was 0.98 throughout.

For the compound `Cc1c[nH]c(=S)[nH]c1=S` [2,4dtThy, 2,4-dithiothymine], in [8], the “maximum of lowest-energy absorption band” value is on record as 363 nm and the “ε at maximum of lowest-energy absorption band” value is given as “≈ 9.7×10^3 M^−1 cm^−1”. Moreover, the “wavelength at arbitrary absorption cutoff” value in data set [2] is listed as 395 nm. Moreover, in data set [3], the “increase in rate of intersystem crossing going from 2-thiothymine” value was 3.5 fold, the “intersystem crossing rate increase relative to Thd” value turned out to be 4.2 fold and the triplet yield entry was “approximately 90%”. Moreover, in data set [3] (setting [9]), the “ΦT triplet quantum yield” value is recorded as more than 0.9 and the “τISC intersystem crossing lifetime” value came out at 180±40 fs. Also, in data set [5], the “1O2 yield lower than that of the corresponding thiouracil derivative” value stood at 6%, the singlet oxygen yield is given as approximately 50% and the “ΦΔ singlet oxygen quantum yield” value came out at 0.46 ± 0.02.
